The target in data set [1] is T1, human 5-hydroxytryptamine2C (h5HT2C) receptor (Homo sapiens, UniProt P28335).
T1 construct: expressed in transfected cells; host or cells: CHO (Chinese Hamster Ovary) cells; membrane preparation
T1 sequence (P28335 33-458): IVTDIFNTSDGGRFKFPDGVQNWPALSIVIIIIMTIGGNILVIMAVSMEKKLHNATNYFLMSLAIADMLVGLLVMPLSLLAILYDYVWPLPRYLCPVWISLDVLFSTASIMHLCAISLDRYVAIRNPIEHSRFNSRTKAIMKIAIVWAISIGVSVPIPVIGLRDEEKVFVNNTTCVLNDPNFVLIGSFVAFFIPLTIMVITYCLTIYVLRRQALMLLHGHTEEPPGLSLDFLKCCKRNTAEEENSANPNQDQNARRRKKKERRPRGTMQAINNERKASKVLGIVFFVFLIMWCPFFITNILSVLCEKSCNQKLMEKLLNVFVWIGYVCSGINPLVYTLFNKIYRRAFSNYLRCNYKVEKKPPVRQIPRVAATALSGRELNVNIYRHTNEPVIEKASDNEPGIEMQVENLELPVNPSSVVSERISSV
In words: 5HT2C Receptor Binding Test Procedure ([125I]DOI displacement, CHO cell membranes).

In another data set the target is T2, human 5-HT2C receptor (Homo sapiens, UniProt P28335).
T2 sequence (P28335 33-458): T1 sequence (P28335 33-458)
The data set is described as follows: Stimulation of [3H] Inositol Monophosphate production by 5HT2C agonists in transfected CHO cells. Particulars: for Emax: CHO, read-out: 5HT2C % Emax (5HT, 100%).

In a further data set the test system is male Sprague-Dawley rats. In words: Effects of Compounds on Feeding Behavior in Rats (food intake, 24 hr fast). The format is in vivo. Particulars: Rattus norvegicus, ip, dose giving 50% reduction in food intake, read-out: ED50 (mg/kg), 5HT2C Food Intake in Rats. The procedure:
Effects of Compounds on Feeding Behavior in Rats
Eight (8) male Sprague-Dawley rats weighing 150-180 g were separated into individual cages and acclimated to a powdered diet for 2 weeks. During this period and throughout the test procedure, the food cup and the animals were weighed daily. Following the acclimation period, animals were fasted for 24 hours and then injected with either vehicle or one of 4 doses of the test compound. Food intake was assessed at 2 and 24 hours following compound administration. Compounds to be evaluated were injected 1-2× per week until all animals had received all doses of the test compound. The order of doses were chosen using to a modified Latin Square design. Additional studies may be conducted in satieted rats at the start of the dark cycle. Compounds were injected i.p, s.c. or p.o. At the end of the study effects of the test compound on food intake was evaluated using a repeated measures ANOVA. Data were collected were 2 hour food intake (g). Data were subjected to one-way ANOVA with posthoc t-tests to assess group differences. Where appropriate, ED50 values were calculated.

Data set [2] relates to several animal species and humans. Particulars: Cowen et al. 1995; cited from earlier work.
Setting [3] is: read-out: Ki value and 95% confidence interval (reference compounds).

pEC50, pKd, pKi: −log10 of the molar value. Structures can show the parent of a compound that is named as a salt. Where two headings read alike, the source gives them in different places.

Method for human 5-HT2C receptor: One (1) ml of maintenance medium containing 1 μCi/ml myo-[^3H] inositol was added to each well. After 48 hours labeling, the cells were washed once with 0.5 ml DMEM containing 25 mM HEPES and 10 mM LiCl, then preincubated with the medium for 30 min (antagonists were included in this period if tested). At the end of the preincubation, the medium was removed, the cells were then incubated with test compounds (in presence of antagonists if needed) for 30 min. The reaction was terminated by removal of the incubation solution and addition of 0.5 ml ice-cold 5% PCA, followed by 15 to 30 min incubation on ice. 200 μl of 0.5 M Tes/1.5 M K2CO3 was added to each well to neutralize to pH 7, and plates were left on ice for another 15 to 30 min to precipitate all salts. The liquid and solid phases were separated by centrifugation.
A portion (350 μl) of the upper aqueous phase was applied to Dowex AG-1×8 (formate form, 100-200 mesh) columns. The columns were then washed stepwise with 10 ml of water and 10 ml of 25 mM ammonium formate to remove free myo-[^3H]inositol and deacylated phosphoinositol, respectively. Finally 10 ml of 0.2 M ammonium formate solution was applied to the columns to elute [^3H] inositol monophosphate ([^3H] IP1) directly into scintillation vials. Of this eluate, 1 ml was used to determine radioactivity by scintillation counting.
A 3-parameter logistic function is used to generate estimate of EC50/IC50.

A word on the pKi: it is the negative decadic logarithm of the Ki, by convention in mol/L. Regarding `CN1CCN(C2=Nc3ccccc3Oc3ccc(Cl)cc32)CC1` [Loxapine], the negative logarithm of the Ki (pKi) in data set [1] (setting [3]) is 7.48.
In general, pKd refers to the negative decadic logarithm of the Kd, by convention in mol/L. Consider `COc1cc(CC(C)N)c(OC)cc1I` (centres unmarked) [[^125I] DOI], for which, in data set [1] (read-out: dissociation constant, KD of [125I] DOI at the human serotonin 5HT2C receptor, saturation binding with increasing concentrations of [125I] DOI), the pKd is 9.40.
In the case of `CSc1ccc2c(c1)C(N1CCN(C)CC1)Cc1ccccc1S2` (centres unmarked) [Methiothepin], the pKi in data set [1] ([125I]DOI binding, h5HT2C in CHO membranes, 95% confidence interval in brackets, read-out: Ki value and 95% confidence interval (reference compounds)) is 8.34.
In data set [1], `CC1(C)CCc2c(c3cccc4c3n2CCNC4)C1` [Example 4, 9,9,Dimethyl-1,2,3,4,8,9,10,11-octahydro[1,4]diazepino[6,7,1-jk]carbazole] showed a pKi of 6.61.
As a reminder, the pEC50 is the negative decadic logarithm of the EC50, by convention in mol/L. The Emax is the size of the effect at its maximum, as opposed to the concentration needed. Turning to `c1cc2c3c(c1)c1c(n3CCNC2)CCCC1` [Example 1, 1,2,3,4,8,9,10,11-Octahydro-[1,4]diazepino[6,5,4-jk]carbazole], on human 5-HT2C receptor, the pEC50 is 6.37 and the Emax was 90%. The ED50 in the data set with male Sprague-Dawley rats came out at 20.9 mg/kg.
The compound `Clc1cc2c3c(c1)c1c(n3CCNC2)CCCC1` [Example 5, 6-Chloro-1,2,3,4,8,9,10,11-octahydro[1,4]diazepino[6,7,1-jk]cabazole] had a pKi in data set [1] of 6.45.
For `CCN1CCn2c3c(c4cc(Cl)cc(c42)C1)CCCC3` [Example 9, 6-Chloro-3-ethyl-1,2,3,4,8,9,10,11-octahydro[1,4]diazepino[6,5,4-jk]carbazole], the “5HT2C Affinity DOI/Agonist binding, inhibition @ 1 μM” value in data set [1] is given as 55%.
In data set [1], `CC[C@@H](CO)NC(=O)[C@@H]1C=C2c3cccc4c3c(cn4C)C[C@H]2N(C)C1` [Methysergide] gave a pKi of 8.20.
With `Clc1cccc(N2CCNCC2)c1` [mCPP, meta-chlorophenylpiperazine], the “effect on food intake” value in data set [2] is “decreases food intake”.
Turning to `Cc1nc2sccn2c(=O)c1CCN1CCC(=C(c2ccc(F)cc2)c2ccc(F)cc2)CC1` [Ritanserin], the pKi in data set [1] (setting [3]) was 8.70.
On to `c1cc2c3c(c1)C1CCCCC1N3CCNC2` (centres unmarked) [Example 2, 1,2,3,4,7b,8,9,10,11,11a-Decahydro-[1,4]diazepino[6,7,1-jk]carbazole], for which, on human 5-HT2C receptor, the pEC50 is 6.68 and the Emax was determined as 70%. The compound further gave a pKi in data set [1] of 7.04.
One may read the melting point as the temperature of the solid-liquid transition. `c1cc2c3c(c1)C1CCCCC1N3CCNC2` (centres unmarked) (as salt: hydrochloride) [Example 2, 1,2,3,4,7b,8,9,10,11,11a-Decahydro-[1,4]diazepino[6,7,1-jk]carbazole] gave a melting point of 265 to 269 °C.
In data set [1], `CC1(C)Cc2c(c3cccc4c3n2CCNC4)C(C)(C)C1` [Example 3, 8,8,10,10-Tetramethyl-1,2,3,4,8,9,10,11-octahydro[1,4]diazepino[6,7,1-jk]carbazole] gave a pKi of 7.14.

The values are drawn from US20020086860A1, “[1,4]Diazepino [6,7,1-jk] carbazoles and derivatives” (American Home Products Corporation, priority 2000, published 2002).
